Results: ChEMBL document CHEMBL1156569, “Structural basis for the improved drug resistance profile of new generation benzophenone non-nucleoside HIV-1 reverse transcriptase inhibitors” (J Med Chem, 2008)

Experiments:
Format in all cases: functional, organism-based
Settings in all cases: Human immunodeficiency virus 1, HeLa
[1] = system: Human immunodeficiency virus 1; assay: Antiviral activity against NNRTI-resistant HIV1 with reverse transcriptase K103N/G190A mutant in HeLa cells by MAGI assay
[2] = system: Human immunodeficiency virus 1; assay: Antiviral activity against NNRTI-resistant HIV1 with reverse transcriptase K103N mutant in HeLa cells by MAGI assay
[3] = system: Human immunodeficiency virus 1; assay: Antiviral activity against NNRTI-resistant HIV1 with reverse transcriptase P236L mutant in HeLa cells by MAGI assay
[4] = system: Human immunodeficiency virus 1; assay: Antiviral activity against NNRTI-resistant HIV1 with reverse transcriptase V106M mutant in HeLa cells by MAGI assay
[5] = system: Human immunodeficiency virus 1; assay: Antiviral activity against NNRTI-resistant HIV1 with reverse transcriptase L100I mutant in HeLa cells by MAGI assay
[6] = system: Human immunodeficiency virus 1; assay: Antiviral activity against NNRTI-resistant HIV1 with reverse transcriptase G190E mutant in HeLa cells by MAGI assay
[7] = system: Human immunodeficiency virus 1; assay: Antiviral activity against NNRTI-resistant HIV1 with reverse transcriptase V106A/Y181C mutant in HeLa cells by MAGI assay
[8] = system: Human immunodeficiency virus 1; assay: Antiviral activity against NNRTI-resistant HIV1 with reverse transcriptase Y181C mutant in HeLa cells by MAGI assay
[9] = system: Human immunodeficiency virus 1; assay: Antiviral activity against NNRTI-resistant HIV1 with reverse transcriptase V106I/Y181C mutant in HeLa cells by MAGI assay
[10] = system: Human immunodeficiency virus 1; assay: Antiviral activity against NNRTI-resistant HIV1 with reverse transcriptase V108I/Y181C mutant in HeLa cells by MAGI assay
[11] = system: Human immunodeficiency virus 1; assay: Antiviral activity against wild type HIV1 in HeLa cells by MAGI assay
[12] = system: Human immunodeficiency virus 1; assay: Antiviral activity against NNRTI-resistant HIV1 with reverse transcriptase K103N/V108I mutant in HeLa cells by MAGI assay
[13] = system: Human immunodeficiency virus 1; assay: Antiviral activity against NNRTI-resistant HIV1 with reverse transcriptase K101E mutant in HeLa cells by MAGI assay
[14] = system: Human immunodeficiency virus 1; assay: Antiviral activity against NNRTI-resistant HIV1 with reverse transcriptase E138K mutant in HeLa cells by MAGI assay
[15] = system: Human immunodeficiency virus 1; assay: Antiviral activity against NNRTI-resistant HIV1 with reverse transcriptase K103N/P225H mutant in HeLa cells by MAGI assay
[16] = system: Human immunodeficiency virus 1; assay: Antiviral activity against NNRTI-resistant HIV1 with reverse transcriptase G190A mutant in HeLa cells by MAGI assay
[17] = system: Human immunodeficiency virus 1; assay: Antiviral activity against NNRTI-resistant HIV1 with reverse transcriptase V106I mutant in HeLa cells by MAGI assay
[18] = system: Human immunodeficiency virus 1; assay: Antiviral activity against NNRTI-resistant HIV1 with reverse transcriptase Y188L mutant in HeLa cells by MAGI assay
[19] = system: Human immunodeficiency virus 1; assay: Antiviral activity against NNRTI-resistant HIV1 with reverse transcriptase V106A mutant in HeLa cells by MAGI assay
[20] = system: Human immunodeficiency virus 1; assay: Antiviral activity against NNRTI-resistant HIV1 with reverse transcriptase K103N/Y181C mutant in HeLa cells by MAGI assay
[21] = system: Human immunodeficiency virus 1; assay: Antiviral activity against NNRTI-resistant HIV1 with reverse transcriptase Y188C mutant in HeLa cells by MAGI assay
[22] = system: Human immunodeficiency virus 1; assay: Antiviral activity against NNRTI-resistant HIV1 with reverse transcriptase V108I mutant in HeLa cells by MAGI assay
[23] = system: Human immunodeficiency virus 1; assay: Antiviral activity against NNRTI-resistant HIV1 with reverse transcriptase K103N/L100I mutant in HeLa cells by MAGI assay
[24] = system: Human immunodeficiency virus 1; assay: Antiviral activity against NNRTI-resistant HIV1 with reverse transcriptase G190S mutant in HeLa cells by MAGI assay
[25] = system: Human immunodeficiency virus 1; assay: Antiviral activity against NNRTI-resistant HIV1 with reverse transcriptase P225H mutant in HeLa cells by MAGI assay

Row | SMILES | IC50 [1] [nM] | IC50 [2] [nM] | IC50 [3] [nM] | IC50 [5] [nM] | IC50 [6] [nM] | IC50 [7] [nM] | IC50 [8] [nM] | IC50 [9] [nM] | IC50 [10] [nM] | IC50 [11] [nM] | IC50 [12] [nM] | IC50 [13] [nM] | IC50 [14] [nM] | IC50 [15] [nM] | IC50 [16] [nM] | IC50 [17] [nM] | IC50 [19] [nM] | IC50 [20] [nM] | IC50 [21] [nM] | IC50 [23] [nM] | further results
1 | Cc1cc(S(N)(=O)=O)ccc1NC(=O)COc1ccc(Cl)cc1C(=O)c1cc(Cl)cc(C#N)c1 | 3.3 | 0.4 | 0.4 | 0.3 | 0.4 | 1 | 0.4 | 3.8 | 0.6 | 0.2 | 0.9 | 0.6 | 1.6 | 0.7 | 0.6 | 0.8 | 1.1 | 1.2 | 0.04 | 0.9 | IC50 [4]: 0.4 nM; IC50 [18]: 14 nM; IC50 [22]: 0.7 nM; IC50 [24]: 0.7 nM
2 | Cc1cc(S(N)(=O)=O)ccc1NC(=O)COc1ccc(Cl)cc1C(=O)c1cc(F)cc(C(F)(F)F)c1 | 13 | 1.7 | 3.4 | 1.1 | 3.9 | 13 | 2.1 | 10 | 3.2 | 1.2 | 2.6 | 3.1 | 2.7 | 1.4 | 4 | 2.3 | 9.3 | 3.3 | 0.3 | 2.8 | IC50 [25]: 0.7 nM; IC50 [18]: 66 nM; IC50 [22]: 1.8 nM
3 | O=C1Nc2ccc(Cl)cc2C(C#CC2CC2)(C(F)(F)F)O1 (single isomer, unassigned) [EFAVIRENZ] |  | 17 | 0.6 | 21 | 1 | 2 | 0.8 | 3 | 2.7 | 0.4 | 94 | 2.3 | 1.2 |  | 5.9 | 0.9 | 0.8 | 44 | 1.2 | 1200 | IC50 [4]: 7.2 nM; IC50 [25]: 1.3 nM; IC50 [18]: 154 nM; IC50 [22]: 1.8 nM; IC50 [24]: 89 nM
4 | O=C(COc1ccc(Cl)cc1C(=O)c1ccccc1)Nc1ccccc1 | 661 | 25 | 5.4 | 21 | 8.3 | 902 | 162 | 1900 | 638 | 2 | 347 | 13 | 27 | 56 | 31 | 18 | 696 | 1050 | 122 | 269 | IC50 [4]: 155 nM; IC50 [25]: 3.3 nM; IC50 [18]: > 2000 nM; IC50 [22]: 19 nM; IC50 [24]: 135 nM
5 | Cc1ccnc2c1NC(=O)c1cccnc1N2C1CC1 [NEVIRAPINE] | > 2000 | > 2000 | 59 | 304 | 83 | > 2000 | > 2000 | > 2000 | > 2000 | 53 | > 2000 | 409 | 71 | > 2000 | > 2000 | 89 | 1870 | > 2000 | 801 | > 2000 | IC50 [4]: > 2000 nM; IC50 [25]: 118 nM; IC50 [18]: > 2000 nM; IC50 [22]: 294 nM; IC50 [24]: > 2000 nM
6 | CC(C)Nc1cccnc1N1CCN(C(=O)c2cc3cc(NS(C)(=O)=O)ccc3[nH]2)CC1 [DELAVIRDINE] | 730 | 1600 | > 2000 | 773 |  | > 2000 |  | 943 |  | 88 | > 2000 | 537 |  | > 2000 | 21 | 22 | 750 | > 2000 | 1620 | > 2000 | 
